The subject of the assay is calcium concentration in the serum. As to the kind of experiment: Test 1: reduction of calcium level in serum after tail vein administration to rats. Type of assay: in vivo, rats of the Wistar strain. As to conditions: 1 ml/kg tail vein, female Wistar rats. Put shortly: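 Female Wistar rats, six weeks old, were assigned in groups of 4 and given the test peptides through the tail vein at 1 ml/kg. The peptides were dissolved in 1% aqueous sodium acetate (pH 4,0) containing 0.1% BSA. Blood (0.3 ml) was drawn from the neck vein immediately before dosing and at set times afterward. Serum was separated by centrifuging at 3500 rpm for 20 minutes. Calcium was measured on a TBA-380 analyzer with a Wako o-cpc kit, and the percentage reduction in serum calcium was calculated.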

[1] abbreviates: concentration 83 ng/ml, 0 hour (just before administration).
Where [2] appears, read: concentration 83 ng/ml, 2 hours.
Where [3] appears, read: concentration 83 ng/ml, 4 hours.
[4] abbreviates: concentration 83 ng/ml, 6 hours.
[5] abbreviates: concentration 830 ng/ml, 0 hour (just before administration).
The mark [6] stands for this setting: concentration 830 ng/ml, 1 hour.
[7] abbreviates: concentration 830 ng/ml, 2 hours.
Setting [8] is: concentration 830 ng/ml, 4 hours.
[9] abbreviates: concentration 830 ng/ml, 6 hours.

Molecules are shown by their SMILES. Numbered stars: 1 amine (or outer) side, 2 acyl side, 3 side chain; on linkers, the order of the positions; unused ones are H or OH. Bridge positions count the residues as written; N and C are the ends. Square brackets hold non-standard residues; d marks the D form. Peptide text beside a SMILES is read from it. Suc = O=C(CCC(=O)[*:2])[*:1]; Orn = NCCC[C@H](N)C(=O)O

With `CC[C@H](C)[C@H](NC(=O)[C@H](C)NC(=O)[C@@H](NC(=O)[C@H](CCC(N)=O)NC(=O)[C@@H]1CCCN1C(=O)[C@H](Cc1ccc(O)cc1)NC(=O)[C@@H](NC(=O)[C@H](Cc1c[nH]cn1)NC(=O)[C@H](Cc1ccccc1)NC(=O)[C@H](CCCCN)NC(=O)[C@H](CC(N)=O)NC(=O)[C@H](CC(C)C)NC(=O)[C@H](CC(=O)O)NC(=O)[C@H](CCC(N)=O)NC(=O)[C@H](CO)NC(=O)[C@H](CC(C)C)NC(=O)[C@H](CCCCN)NC(=O)CNC(=O)[C@H](CC(C)C)NC(=O)[C@H](CC(C)C)NC(=O)[C@@H]1CCCCNC(=O)CCC(=O)N[C@@H](CC(N)=O)C(=O)N[C@@H](CC(C)C)C(=O)N[C@@H](CO)C(=O)N[C@@H]([C@@H](C)O)C(=O)N1)[C@@H](C)O)[C@@H](C)O)C(=O)NCC(=O)N[C@H](C(=O)NCC(=O)N[C@@H](C)C(=O)N1CCC[C@H]1C(N)=O)C(C)C` [Peptide No. 32] (NLSTKLLGKLSQDLNKFHTYPQTAIGVGAP-NH2; linker N-5 via Suc), the “Serum calcium level as percent of pre-dose baseline” value (“Serum calcium level as percent” below) is 100.0% under setting [1]; 82.4% (concentration 83 ng/ml, 1 hour); 76.1% under setting [2]; 79.1% under setting [3]; 84.1% under setting [4]; 100.0% under setting [5]. In addition, the “Serum calcium level as percent” value is given as 84.5% under setting [6], 73.6% under setting [7], 65.9% under setting [8] and 64.2% under setting [9].

Consider `CC[C@H](C)[C@H](NC(=O)[C@H](C)NC(=O)[C@@H](NC(=O)[C@H](CCC(N)=O)NC(=O)[C@@H]1CCCN1C(=O)[C@H](Cc1ccc(O)cc1)NC(=O)[C@@H](NC(=O)[C@H](CCC(N)=O)NC(=O)CNC(=O)[C@H](CCCCN)NC(=O)[C@H](Cc1c[nH]cn1)NC(=O)[C@H](CC(C)C)NC(=O)[C@H](CCC(=O)O)NC(=O)[C@H](CCC(N)=O)NC(=O)[C@H](CO)NC(=O)[C@H](CC(C)C)NC(=O)[C@H](CCCCN)NC(=O)CNC(=O)[C@H](CC(C)C)NC(=O)[C@H](CCSC)NC(=O)[C@@H]1CSSC[C@H](N)C(=O)NCC(=O)N[C@@H](CC(N)=O)C(=O)N[C@@H](CC(C)C)C(=O)N[C@@H](CO)C(=O)N[C@@H]([C@@H](C)O)C(=O)N1)[C@@H](C)O)[C@@H](C)O)C(=O)NCC(=O)N[C@H](C(=O)NCC(=O)N[C@@H](C)C(=O)N1CCC[C@H]1C(N)=O)C(C)C` [Peptide No. 4] (H-CGNLSTCMLGKLSQELHKGQTYPQTAIGVGAP-NH2; disulfide 1-7), for which the “Serum calcium level as percent” value is, setting by setting: under setting [5], 100.0%; under setting [6], 90.5%; under setting [7], 92.0%; under setting [8], 95.5%; under setting [9], 86.7%.

Consider `CC[C@H](C)[C@H](NC(=O)[C@H](C)NC(=O)[C@@H](NC(=O)[C@H](CCC(N)=O)NC(=O)[C@@H]1CCCN1C(=O)[C@H](Cc1ccc(O)cc1)NC(=O)[C@@H](NC(=O)[C@H](CCC(N)=O)NC(=O)[C@H](CC(C)C)NC(=O)[C@H](CCCCN)NC(=O)[C@H](Cc1c[nH]cn1)NC(=O)[C@H](CC(C)C)NC(=O)[C@H](CCC(=O)O)NC(=O)[C@H](CCC(N)=O)NC(=O)[C@H](CO)NC(=O)[C@H](CC(C)C)NC(=O)[C@H](CCCCN)NC(=O)CNC(=O)[C@H](CC(C)C)NC(=O)[C@H](CC(C)C)NC(=O)[C@@H]1CCCCNC(=O)CCC(=O)N[C@@H](CC(N)=O)C(=O)N[C@@H](CC(C)C)C(=O)N[C@@H](CO)C(=O)N[C@@H]([C@@H](C)O)C(=O)N1)[C@@H](C)O)[C@@H](C)O)C(=O)NCC(=O)N[C@H](C(=O)NCC(=O)N[C@@H](C)C(=O)N1CCC[C@H]1C(N)=O)C(C)C` [Peptide No. 26] (NLSTKLLGKLSQELHKLQTYPQTAIGVGAP-NH2; linker N-5 via Suc), for which the “Serum calcium level as percent” value runs as follows: under setting [1], 100.0%; (concentration 83 ng/ml, 1 hour) 78.9%; under setting [2], 67.6%; under setting [3], 70.4%; under setting [4], 75.2%; under setting [5], 100.0%. In addition, the “Serum calcium level as percent” value is 73.9% under setting [6], 62.9% under setting [7], 52.1% under setting [8] and 48.2% under setting [9].

Consider `CC[C@H](C)[C@H](NC(=O)[C@H](C)NC(=O)[C@@H](NC(=O)[C@H](CCC(N)=O)NC(=O)[C@@H]1CCCN1C(=O)[C@H](Cc1ccc(O)cc1)NC(=O)[C@@H](NC(=O)[C@H](CCC(N)=O)NC(=O)CNC(=O)[C@H](CCCCN)NC(=O)[C@H](Cc1c[nH]cn1)NC(=O)[C@H](CC(C)C)NC(=O)[C@H](CCC(=O)O)NC(=O)[C@H](CCC(N)=O)NC(=O)[C@H](CO)NC(=O)[C@H](CC(C)C)NC(=O)[C@H](CCCCN)NC(=O)CNC(=O)[C@H](CC(C)C)NC(=O)[C@H](CCSC)NC(=O)[C@@H]1CSSC[C@H](N)C(=O)NCC(=O)N[C@@H](CC(N)=O)C(=O)N[C@@H](CC(C)C)C(=O)N[C@@H](CO)C(=O)N[C@@H]([C@@H](C)O)C(=O)N1)[C@@H](C)O)[C@@H](C)O)C(=O)NCC(=O)N[C@@H](CO)C(=O)NCC(=O)N[C@H](C(=O)N1CCC[C@H]1C(N)=O)[C@@H](C)O` [Peptide No. 8] (H-CGNLSTCMLGKLSQELHKGQTYPQTAIGSGTP-NH2; disulfide 1-7), for which the “Serum calcium level as percent” value is, setting by setting: under setting [5], 100.0%; under setting [6], 76.6%; under setting [7], 78.2%; under setting [8], 99.7%; under setting [9], 96.3%.

For the compound `CC[C@H](C)[C@H](NC(=O)[C@H](C)NC(=O)[C@@H](NC(=O)[C@H](CCC(N)=O)NC(=O)[C@@H]1CCCN1C(=O)[C@H](Cc1ccc(O)cc1)NC(=O)[C@@H](NC(=O)[C@H](CCC(N)=O)NC(=O)[C@H](CC(C)C)NC(=O)[C@H](CCCCN)NC(=O)[C@H](Cc1c[nH]cn1)NC(=O)[C@H](CC(C)C)NC(=O)[C@H](CCC(=O)O)NC(=O)[C@H](CCC(N)=O)NC(=O)[C@H](CO)NC(=O)[C@H](CC(C)C)NC(=O)[C@H](CCCCN)NC(=O)CNC(=O)[C@H](CC(C)C)NC(=O)[C@H](CC(C)C)NC(=O)[C@@H]1CCC(=O)NCCC[C@H](N)C(=O)N[C@@H](CC(N)=O)C(=O)N[C@@H](CC(C)C)C(=O)N[C@@H](CO)C(=O)N[C@@H]([C@@H](C)O)C(=O)N1)[C@@H](C)O)[C@@H](C)O)C(=O)NCC(=O)N[C@H](C(=O)NCC(=O)N[C@@H](C)C(=O)N1CCC[C@H]1C(N)=O)C(C)C` [Peptide No. 30] (H-[Orn]NLSTELLGKLSQELHKLQTYPQTAIGVGAP-NH2; lactam 1-6), the “Serum calcium level as percent” value came to 100.0% under setting [1]; 77.2% (concentration 83 ng/ml, 1 hour); 80.7% under setting [2]; 83.2% under setting [3]; 77.7% under setting [4]; 100.0% under setting [5]. Further, the “Serum calcium level as percent” value was found to be 74.0% under setting [6], 63.8% under setting [7], 65.4% under setting [8] and 73.9% under setting [9].

For the compound `CC[C@H](C)[C@H](NC(=O)[C@H](C)NC(=O)[C@@H](NC(=O)[C@H](CCC(N)=O)NC(=O)[C@@H]1CCCN1C(=O)[C@H](Cc1ccc(O)cc1)NC(=O)[C@@H](NC(=O)[C@H](CCC(N)=O)NC(=O)[C@H](CC(C)C)NC(=O)[C@H](CCCCN)NC(=O)[C@H](Cc1c[nH]cn1)NC(=O)[C@H](CC(C)C)NC(=O)[C@H](CCC(=O)O)NC(=O)[C@H](CCC(N)=O)NC(=O)[C@H](CO)NC(=O)[C@H](CC(C)C)NC(=O)[C@H](CCCCN)NC(=O)CNC(=O)[C@H](CC(C)C)NC(=O)[C@H](CCSC)NC(=O)[C@@H]1CCCCNC(=O)C[C@H](N)C(=O)N[C@@H](CC(N)=O)C(=O)N[C@@H](CC(C)C)C(=O)N[C@@H](CO)C(=O)N[C@@H]([C@@H](C)O)C(=O)N1)[C@@H](C)O)[C@@H](C)O)C(=O)NCC(=O)N[C@H](C(=O)NCC(=O)N[C@@H](C)C(=O)N1CCC[C@H]1C(N)=O)C(C)C` [Peptide No. 23] (H-DNLSTKMLGKLSQELHKLQTYPQTAIGVGAP-NH2; lactam 1-6), the “Serum calcium level as percent” value by setting is: under setting [1], 100.0%; (concentration 83 ng/ml, 1 hour) 73.6%; under setting [2], 72.2%; under setting [3], 83.3%; under setting [4], 82.4%; under setting [5], 100.0%. The “Serum calcium level as percent” value is, setting by setting: under setting [6], 68.5%; under setting [7], 61.6%; under setting [8], 56.9%; under setting [9], 71.1%.

For the origin of these results see patent publication US6127519A, “Calcitonin derivatives” (Tsumura & Co., priority 1990, dated 2000).
